Molecular target: T1, Prolyl hydroxylase 3 (PHD3) (Homo sapiens, UniProt Q9H6Z9)
T1 construct: gene EGLN3; recombinant human PHD3 expressed in E. coli, ~45 kDa
Experiment: fluorescence-based 2OG consumption assay (OPD derivatization), double-reciprocal kinetics
Assay type: biochemical

T1 sequence (Q9H6Z9 whole entry): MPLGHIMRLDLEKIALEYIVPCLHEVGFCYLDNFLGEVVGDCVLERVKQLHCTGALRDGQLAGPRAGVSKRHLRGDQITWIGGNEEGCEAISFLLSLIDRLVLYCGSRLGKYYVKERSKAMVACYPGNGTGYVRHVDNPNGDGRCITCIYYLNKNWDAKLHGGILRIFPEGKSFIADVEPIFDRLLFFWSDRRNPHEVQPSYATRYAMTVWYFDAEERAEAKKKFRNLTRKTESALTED

| Ki | Structure (SMILES) |
| --- | --- |
| 1090 nM | O=C(Nc1ccccc1NC(=O)[C@H]1CCCN1)[C@H]1CCCN1 [PA1] |
| 2380 nM | O=C(O)[C@H]1CCCN1C(=O)OCc1ccccc1 [PA2] |

Reference: PMC3995910, “Effect of Proline Analogues on Activity of Human Prolyl Hydroxylase and the Regulation of HIF Signal Transduction Pathway” (PLoS ONE, 2014)
